According to ChEMBL document CHEMBL1155556, “New macrolactins from a marine Bacillus sp. Sc026” (2000):

Tests used:
Type in all cases: functional
Conditions in all cases: read-out: IZ
Staphylococcus aureus [1] = test: Antibacterial activity against Staphylococcus aureus ATCC 25923 at 100 ug/disk by agar diffusion assay
Bacillus subtilis [2] = test: Antibacterial activity against Bacillus subtilis ATCC 6633 at 100 ug/disk by agar diffusion assay
Staphylococcus aureus [3] = test: Antibacterial activity against Staphylococcus aureus ATCC 25923 at 50 ug/disk by agar diffusion assay
Bacillus subtilis [4] = test: Antibacterial activity against Bacillus subtilis ATCC 6633 at 50 ug/disk by agar diffusion assay

Row | SMILES | zone of inhibition at 100 µg/disc (Staphylococcus aureus [1]) | zone of inhibition at 100 µg/disc (Bacillus subtilis [2]) | zone of inhibition at 50 µg/disc (Staphylococcus aureus [3]) | zone of inhibition at 50 µg/disc (Bacillus subtilis [4])
1 | C[C@@H]1CCC/C=C/CCC(=O)C[C@@H](O)C/C=C\C=C\[C@@H](OC(=O)CCC(=O)O)C/C=C/C=C\C(=O)O1 | 8 mm | 9 mm |  | 
2 | C[C@@H]1CCC/C=C/C=C/[C@H](O)C[C@@H](O)C/C=C\C=C\[C@@H](OC(=O)CCC(=O)O)C/C=C/C=C\C(=O)O1 [7-O-SUCCINYL MACROLACTIN A] |  |  | 24 mm | 10 mm
3 | C[C@@H]1CCC/C=C/CCC(=O)C[C@@H](O)C/C=C\C=C\[C@@H](O)C/C=C/C=C\C(=O)O1 [MACROLACTIN F] | 28 mm | 8 mm |  | 
